The subject of this data set is conscious Sprague-Dawley rats. Nature of the data set: Positive inotropic challenge (dobutamine, levosimendan) after supra-therapeutic mavacamten, echocardiography. Particulars: supra-therapeutic dose, healthy rats. The data set is classed as in vivo, rat. As for the experimental part:
Methods: The responsiveness of mavacamten-induced cardio-depression to positive inotropic challenges was assessed in a set of conscious Sprague-Dawley rats. In these animals, functional reserve was assessed via either dobutamine (+DOB, 10 μg/kg/min IV for 10 min, n=7) or levosimendan (+LEVO, 0.3 μmol/kg IV over […]; n=6) challenges given 3 hrs following a single-dose administration of MAVA (at 4 mg/kg, PO). Cardiac function/geometry were recorded and compared at three separate time-points/days: prior to dosing (i.e., at baseline) and at 3 hrs post-dosing both before as well as during the inotropic challenge; in order to account for the levosimendan-induced changes in loading conditions, an additional echocardiographic examination was performed following acute preload-restoration in LEVO-treated rats (+LEVO/F, 0.9% NaCl at 30 mL/kg/hr IV).
In these experiments, left-ventricular fractional shortening (FS), an index of systolic performance, as well as LV dimensions/volumes and heart rates were measured using a high-frequency transducer and parasternal long-axis transthoracic views (Vevo2100, VisualSonic). FS was defined as the end-diastole normalized change in internal dimensions/diameter of the left ventricle between end-systole (LVESd) and end-diastole (LVEDd) (i.e., FS=100·[LVEDd−LVESd]/LVEDd). LV volumes were derived assuming a Teichholz model (LVV=7·[2.4+LVid]−1·LVid3).

With `CC(C)n1c(=O)cc(N[C@@H](C)c2ccccc2)[nH]c1=O` [mavacamten, (S)-3-Isopropyl-6-((1-phenylethyl)amino)pyrimidine-2, 4(1H,3H)-dione], the “reduction in ejection fraction” value is recorded as roughly 50%.

Source of the values: US20260207600A1, “METHODS OF TREATMENT WITH MYOSIN MODULATOR” (MYOKARDIA, INC., priority 2019, published 2026).
